These are literature values, as cited in patent US20250262358A1, “SURGICAL SYSTEM AND METHODS OF USE” (MEDTRONIC, INC., priority 2021, published 2025).

Each structure is given as a SMILES string.

The data set deals with myofibroblast formation. The conditions noted are these: animal studies of capsular contracture with breast implants; Ajmal et al. (2003).

Turning to `O=S(=O)([O-])CCS.[Na+]` [MESNA, sodium 2-mercaptoethane sulfonate], the myofibroblast formation entry was “diminish myofibroblast formation”.
